Laboratory results: patent US20050106249A1 (priority 2002, published 2005)

Columns and labels:
[1] = cited from earlier work
[2] = human plasma; orally administered immediate release oxycodone; cited from earlier work
[3] = test system: Male Sprague-Dawley (SD) rats; test: Example 8 rat tolerance study, tail-flick assay; settings: for Tail flick results: mean ± SD
Protocol: The biphasic dosing regimen used subcutaneous (SC) infusion, and the SZO regimen used subcutaneously-implanted ALZET® osmotic pumps. The vehicle control for the study was 0.9% saline.
The rodent tail-flick assay was used to assess analgesia (antinociception). […] In the assay, rodents are briefly restrained and radiant heat is applied to the tip of the tail. The time it takes for the animal to flick its tail is recorded; a delay in this response compared to pre-dose readings is indicative of antinociception.
An IITC Model 33 Tail Flick Analgesia Meter was used to apply heat to the animal's tail (IITC Life Science, Woodland Hills, Calif.). […] (this temperature allows pre-warming of the animal's tail to allow for more uniform measurements from day-to-day and test-to-test); • (3) Cutoff Time: 10 seconds (i.e., the length of time from the start of the test until the unit automatically ends the test to prevent tissue damage).
The animals were briefly restrained in plexiglass restrainers and radiant heat was applied to the tip of the animal's tail (approximately 1-2 cm from the tip). After the temperature reached 30° C., the meter increased the light intensity providing a noxious stimulus to the animal's tail. The time in seconds for the animal to flick its tail was recorded for each animal.
Tail flick latency values were converted to a percentage of the maximum possible effect (%MPE) using the following formula: %MPE=100×(ΔL/ΔLmax) where: ΔL=Post-dose Latency−Pre-dose Latency, and ΔLmax=Cutoff Time−Pre-dose Latency.
For the biphasic dosing regimen, the animals were subcutaneously infused using a computer-controlled Harvard syringe pump. […] The animals had catheters implanted subcutaneously with approximately 7 cm of PE 10 tubing. The tubing was secured with sutures and sterile surgical skin glue to prevent accidental removal of the catheter.
For the SZO dosing regimen, ALZET® osmotic pumps (Model 2ML1) were implanted subcutaneously in the animals. […] For the SZO dosing, the rats were not tethered.
Male Sprague-Dawley (SD) rats obtained from Charles River (Hollister, Calif.) and weighing at least 200g were used in the experiments. Extra animals were employed in the biphasic dosing regimen to take account of damaged catheters, but only enough animals were dosed on Day +3 to replace the animals with damaged catheters.
Intuitively, the difference between the effect of the same test on Day +3 and Day −1 should be a direct measure of tolerance. The data collected from rats tested for responses at 0, 0.25, 0.5, 0.75, and 1 mg/kg were thus used to perform the statistical analysis.
The data (difference between Day +3 and Day −1) were analyzed by the analysis of variance (ANOVA) method. The full variance model consisted of the three primary factors, their first-order interaction terms and their second order interaction term, namely: • dosing regimen, • 3-day treatment, • tail flick testing dose, • dosing regimen×3-day treatment, • dosing regimen×tail flick testing dose, • 3-day treatment×tail flick testing dose, and • dosing regiment×3-day treatment x tail flick testing dose.

[4] = analyte in plasma after 40 mg (oxycodone HCl) SZO-24 dosage form
healthy male subjects [5] = test: Example 5 pupil size; assay type: in vivo, human; settings: IV morphine 10 mg; Example 2 SZO-24 dosage form 2×20 mg
healthy male subjects [6] = test: Example 5 cold pain test; settings: 10 mg IV infusion over 15 min

SMILES: COc1ccc2c3c1OC1C(=O)CC[C@@]4(O)[C@@H](C2)N(C)CC[C@]314 (stereo partly shown) [oxycodone, 4,5-epoxy-14-hydroxy-3-methoxy-17-methylmorphinan-6-one]
- onset of action, analgesia occurring ([1]; orally administered): ≤ 30 min
- analgesic action apparent (onset) ([1]; parenterally administered): ≤ 15 min
- half-life [2]: about 3.2 hours
- Tail flick results ([3]; Biphasic dosing (SC infusion, syringe pump, 10 mg/(kg · d)), 3-day treatment oxycodone, testing dose 0 mg/kg, Day +3, n = 7): 1.55 ± 4.70 % MPE
- Tail flick results ([3]; Biphasic dosing (SC infusion, syringe pump, 10 mg/(kg · d)), 3-day treatment oxycodone, testing dose 0.25 mg/kg SC, Day +3, n = 8): 0.48 ± 2.28 % MPE
- Tail flick results ([3]; Biphasic dosing (SC infusion, syringe pump, 10 mg/(kg · d)), 3-day treatment oxycodone, testing dose 0.25 mg/kg SC, Day −1, n = 8): 4.75 ± 6.80 % MPE
- Tail flick results ([3]; Biphasic dosing (SC infusion, syringe pump, 10 mg/(kg · d)), 3-day treatment oxycodone, testing dose 0.5 mg/kg SC, Day +3, n = 8): 10.64 ± 7.72 % MPE
- Tail flick results ([3]; Biphasic dosing (SC infusion, syringe pump, 10 mg/(kg · d)), 3-day treatment oxycodone, testing dose 0.5 mg/kg SC, Day −1, n = 8): 34.19 ± 28.28 % MPE
- Tail flick results ([3]; Biphasic dosing (SC infusion, syringe pump, 10 mg/(kg · d)), 3-day treatment oxycodone, testing dose 0.75 mg/kg SC, Day −1, n = 8): 49.32 ± 32.89 % MPE
- Tail flick results ([3]; Biphasic dosing (SC infusion, syringe pump, 10 mg/(kg · d)), 3-day treatment oxycodone, testing dose 1 mg/kg SC, Day +3, n = 8): 30.73 ± 19.05 % MPE
- Tail flick results ([3]; Biphasic dosing (SC infusion, syringe pump, 10 mg/(kg · d)), 3-day treatment oxycodone, testing dose 1 mg/kg SC, Day −1, n = 8): 84.61 ± 27.43 % MPE
- Tail flick results ([3]; Biphasic dosing (SC infusion, syringe pump, 10 mg/(kg · d)), 3-day treatment oxycodone, testing dose 1.5 mg/kg SC, Day −1, n = 8): 100.00 ± 0.00 % MPE
- Tail flick results ([3]; Biphasic dosing (SC infusion, syringe pump, 10 mg/(kg · d)), 3-day treatment oxycodone, testing dose 3.0 mg/kg SC, Day +3, n = 8): 84.81 ± 26.06 % MPE
- Tail flick results ([3]; Biphasic dosing group, 3-day treatment saline, testing dose 0.25 mg/kg SC, Day +3, n = 8): 9.25 ± 12.00 % MPE
- Tail flick results ([3]; Biphasic dosing group, 3-day treatment saline, testing dose 0.25 mg/kg SC, Day −1, n = 8): 13.82 ± 7.87 % MPE
- Tail flick results ([3]; Biphasic dosing group, 3-day treatment saline, testing dose 0.5 mg/kg SC, Day +3, n = 8): 15.22 ± 12.44 % MPE
- Tail flick results ([3]; Biphasic dosing group, 3-day treatment saline, testing dose 0.5 mg/kg SC, Day −1, n = 8): 26.59 ± 22.79 % MPE
- Tail flick results ([3]; Biphasic dosing group, 3-day treatment saline, testing dose 0.75 mg/kg SC, Day +3, n = 8): 48.59 ± 39.89 % MPE
- Tail flick results ([3]; Biphasic dosing group, 3-day treatment saline, testing dose 0.75 mg/kg SC, Day −1, n = 8): 73.56 ± 28.57 % MPE
- Tail flick results ([3]; Biphasic dosing group, 3-day treatment saline, testing dose 1 mg/kg SC, Day +3, n = 7): 46.00 ± 18.96 % MPE
- Tail flick results ([3]; Biphasic dosing group, 3-day treatment saline, testing dose 1 mg/kg SC, Day −1, n = 7): 89.52 ± 20.25 % MPE
- Tail flick results ([3]; Biphasic dosing group, 3-day treatment saline, testing dose 1.5 mg/kg SC, Day −1, n = 8): 92.48 ± 16.05 % MPE
- Tail flick results ([3]; Biphasic dosing group, 3-day treatment saline, testing dose 3.0 mg/kg SC, Day +3, n = 8): 92.97 ± 15.65 % MPE
- Tail flick results ([3]; SZO dosing (SC ALZET, 10 mg/(kg · d)), 3-day treatment oxycodone, testing dose 0 mg/kg, Day +3, n = 8): −4.75 ± 8.51 % MPE
- Tail flick results ([3]; SZO dosing (SC ALZET, 10 mg/(kg · d)), 3-day treatment oxycodone, testing dose 0.25 mg/kg SC, Day +3, n = 8): −2.07 ± 4.18 % MPE
- Tail flick results ([3]; SZO dosing (SC ALZET, 10 mg/(kg · d)), 3-day treatment oxycodone, testing dose 0.25 mg/kg SC, Day −1, n = 8): 14.72 ± 16.16 % MPE
- Tail flick results ([3]; SZO dosing (SC ALZET, 10 mg/(kg · d)), 3-day treatment oxycodone, testing dose 0.5 mg/kg SC, Day +3, n = 8): 8.48 ± 17.38 % MPE
- Tail flick results ([3]; SZO dosing (SC ALZET, 10 mg/(kg · d)), 3-day treatment oxycodone, testing dose 0.5 mg/kg SC, Day −1, n = 8): 33.12 ± 19.58 % MPE
- Tail flick results ([3]; SZO dosing (SC ALZET, 10 mg/(kg · d)), 3-day treatment oxycodone, testing dose 0.75 mg/kg SC, Day +3, n = 8): 7.90 ± 11.36 % MPE
- Tail flick results ([3]; SZO dosing (SC ALZET, 10 mg/(kg · d)), 3-day treatment oxycodone, testing dose 0.75 mg/kg SC, Day −1, n = 8): 60.76 ± 31.45 % MPE
- Tail flick results ([3]; SZO dosing (SC ALZET, 10 mg/(kg · d)), 3-day treatment oxycodone, testing dose 1 mg/kg SC, Day +3, n = 8): 23.75 ± 25.96 % MPE
- Tail flick results ([3]; SZO dosing (SC ALZET, 10 mg/(kg · d)), 3-day treatment oxycodone, testing dose 1 mg/kg SC, Day −1, n = 8): 80.15 ± 36.76 % MPE
- Tail flick results ([3]; SZO dosing (SC ALZET, 10 mg/(kg · d)), 3-day treatment oxycodone, testing dose 1.5 mg/kg SC, Day −1, n = 8): 91.44 ± 24.22 % MPE
- Tail flick results ([3]; SZO dosing (SC ALZET, 10 mg/(kg · d)), 3-day treatment oxycodone, testing dose 3.0 mg/kg SC, Day +3, n = 8): 94.35 ± 11.48 % MPE
- Tail flick results ([3]; SZO dosing group, 3-day treatment saline, testing dose 0.25 mg/kg SC, Day +3, n = 8): 7.44 ± 11.94 % MPE
- Tail flick results ([3]; SZO dosing group, 3-day treatment saline, testing dose 0.25 mg/kg SC, Day −1, n = 8): 13.69 ± 8.94 % MPE
- Tail flick results ([3]; SZO dosing group, 3-day treatment saline, testing dose 0.5 mg/kg SC, Day +3, n = 8): 8.92 ± 11.30 % MPE
- Tail flick results ([3]; SZO dosing group, 3-day treatment saline, testing dose 0.5 mg/kg SC, Day −1, n = 8): 21.86 ± 13.71 % MPE
- Tail flick results ([3]; SZO dosing group, 3-day treatment saline, testing dose 0.75 mg/kg SC, Day +3, n = 8): 51.09 ± 46.28 % MPE
- Tail flick results ([3]; SZO dosing group, 3-day treatment saline, testing dose 0.75 mg/kg SC, Day −1, n = 8): 65.33 ± 32.06 % MPE
- Tail flick results ([3]; SZO dosing group, 3-day treatment saline, testing dose 1 mg/kg SC, Day +3, n = 8): 35.55 ± 27.94 % MPE
- Tail flick results ([3]; SZO dosing group, 3-day treatment saline, testing dose 1 mg/kg SC, Day −1, n = 8): 90.33 ± 19.58 % MPE
- Tail flick results ([3]; SZO dosing group, 3-day treatment saline, testing dose 1.5 mg/kg SC, Day −1, n = 8): 100.00 ± 0.00 % MPE
- Tail flick results ([3]; SZO dosing group, 3-day treatment saline, testing dose 3.0 mg/kg SC, Day +3, n = 8): 100.00 ± 0.00 % MPE
- tolerance, SZO dosing regimen versus biphasic dosing regimen ([3]; full ANOVA model, 158 rats): not statistically significantly different
- tolerance, rats treated with oxycodone for 3 days versus saline ([3]; full ANOVA model, p=0.0039): statistically different
- estimated mean tolerance difference between the SZO dosing regimen and the biphasic dosing regimen ([3]; reduced ANOVA model, not statistically different at α 0.05): −3.2 %MPE
- estimated mean tolerance difference (Day +3 minus Day −1) between the oxycodone and saline treated rats ([3]; reduced ANOVA model, p=0.0035, testing doses 0-1 mg/kg): −10.7 %MPE

SMILES: COc1ccc2c3c1O[C@H]1C(=O)CC[C@@]4(O)[C@@H](C2)NCC[C@]314 [Noroxycodone]
- AUCinf, single dose [4]: 421.2 ng·h/mL
- Cmax, single-dose plasma concentration [4]: 13.12 ng/mL

SMILES: CN1CC[C@]23c4c5ccc(O)c4O[C@H]2[C@@H](O)C=C[C@H]3[C@H]1C5 [IV morphine, morphine]
- pupil size changes (healthy male subjects [5]): consistent with their respective pharmacokinetic profiles
- separation from placebo in the cold pain test (healthy male subjects [6]): did not statistically separate from placebo
